This is an account of results in US12668568B2, “Adamantanyl-substituted benzamide compounds and their use as P2X7 receptor antagonists” (The University of Sydney, priority 2018, dated 2026).

The structures appear in SMILES notation. Values joined by “and” are separate entries in the source; they are usually repeats but may differ in a detail not shown here. Equal values may be shown once.

A word on the inhibition: it is the drop in the measured response relative to a control, in per cent. What is called IC50 is the concentration that inhibits the measured activity by half.

One data set has as its target T1, CYP1A2 (Homo sapiens, UniProt P05177).
T1 construct: host or cells: insect cells infected with recombinant baculovirus (microsomes)
T1 sequence (P05177 1-516): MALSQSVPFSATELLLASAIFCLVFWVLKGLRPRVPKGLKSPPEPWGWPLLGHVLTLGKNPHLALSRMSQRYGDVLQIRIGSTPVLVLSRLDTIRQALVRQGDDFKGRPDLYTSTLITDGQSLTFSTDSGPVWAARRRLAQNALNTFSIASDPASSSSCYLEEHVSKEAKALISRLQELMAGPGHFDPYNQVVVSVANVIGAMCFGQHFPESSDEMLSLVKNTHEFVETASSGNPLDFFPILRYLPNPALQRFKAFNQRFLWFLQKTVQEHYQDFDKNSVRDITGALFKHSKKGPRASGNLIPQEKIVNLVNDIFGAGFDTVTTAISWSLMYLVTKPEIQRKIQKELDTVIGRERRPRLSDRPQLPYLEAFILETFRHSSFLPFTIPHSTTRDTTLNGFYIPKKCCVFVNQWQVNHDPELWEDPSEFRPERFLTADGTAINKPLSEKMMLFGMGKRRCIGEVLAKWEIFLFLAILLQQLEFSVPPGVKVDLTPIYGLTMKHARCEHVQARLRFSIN
The experiment in a line: Cytochrome profiling CYP1A2 (baculosomes). Type of data set: in vitro ADME. The settings on record: probe fluorogenic probe substrate (not named), 10 μM substrate. From the text:
(§1) Cytochrome P450 (abbreviated CYP, P450 or CYP450) belong to very large and diverse superfamily of haemoproteins which accept both exogenous and endogenous compounds as substrates in enzymatic reactions and play a major role in drug metabolism. Although this class has more than 50 enzymes just 5 of them (CYP1A2, CYP2C9, CYP2C19, CYP2D6 and CYP3A4) are able to metabolise almost 90% of all drugs. Inhibition of these enzymes is one of the major reasons for drug-drug interactions. Consequently, detailed CYP inhibition profiles are a regulatory requirement for all new drugs. Inhibition potencies against the five most relevant CYP isoforms is performed using baculosomes; microsomes prepared from insect cells infected with recombinant baculovirus containing cDNA for a specific human P450 isozyme. The baculosomes are incubated with drug at a concentration of 1 μM in the presence of a probe substrate for 60 minutes at 37° C. The probe is normally metabolised by the baculosomes to produce a fluorescent metabolite. A substrate drug will compete for the isozyme and reduce the metabolism of the probe resulting in a decrease in the fluorescent signal. The percent inhibition due to the presence of the test compound is calculated using the following equation: [formula] • X=fluorescent intensity observed in the presence of test compound • A=fluorescent intensity observed in control • B=fluorescent intensity observed in the presence of the probe control

Data set [1] is described as follows: Brain tissue binding, rapid equilibrium dialysis. Format: in vitro ADME. The settings on record: rat brain tissue, 4 hours 37° C., read-out: pb (% bound) Brain (converted). Here is the method:
Determining the extent to which a molecule binds to factors present within plasma and brain is a critical phase of drug development as this determines not only the free unbound fraction available to exert the desired pharmacological actions but also influences dosing, clearance rate and the potential for drug-drug interactions. Binding is measured with the rapid equilibrium dialysis technique using cartridges consisting of two compartments (sample and buffer chamber) separated by a dialysis membrane.
All compounds are prepared in 100% DMSO to provide 10 mM stock solutions. Sample material is prepared by spiking a known volume of plasma or brain with the stock solution such that the final concentration of compound is 1 μM. This is placed in the sample chamber of the dialysis cartridge. Dialysis buffer is then added to the buffer chamber and the cartridge incubated at 37° C. for 4 hours. Following the incubation the test compound concentrations are determined in the two chambers and the % free or bound component calculated using the equation below:
[formula] [formula] In Vivo Pharmacokinetic Studies
Background: In equilibrium dialysis only unbound substance equilibrates across the membrane.

The target of a further data set is T2, CYP2D6 (Homo sapiens, UniProt P10635).
T2 construct: host or cells: insect cells infected with recombinant baculovirus (microsomes)
The data set can be described thus: Cytochrome profiling CYP2D6 (baculosomes). Format: in vitro ADME. The settings on record: probe fluorogenic probe substrate (not named), 10 μM substrate.
Excerpt: as §1

A short description of data set [2]: Lipophilicity: Log D7.4 determined by HPLC method. Format: physicochemical. As to conditions: for lipophilicity compared with compound 31: HPLC logD7.4; for logD7.4 / chromatographic logD: HPLC retention time, 65 v/v % methanol in 50 mM sodium phosphate buffer pH 7.4; for chromatographic logD: reversed-phase HPLC, Waters Sunfire C18 5 µm column, read-out: logD7.4. Here is the method: Lipophilicity of the compounds was evaluated by an experimentally derived Log D7.4 value determined by a HPLC method.^1 It is preferred that the lipophilicity of the compounds is as low as possible.
High Performance Liquid Chromatography was performed on a Waters 2695 Separations module equipped with the Waters Alliance Series Column Heater (set at 30° C.) and Waters 2996 Photodiode Array (PDA) Detector. […] Standards and samples were dissolved in the elution solvent mixture and then filtered prior to injection. Data acquisition and processing was performed with the Waters Empower 2 software and Microsoft Excel™ was used for data analysis. All standards and samples were analyzed in triplicate.
. An […] curve was obtained (FIG. 1) which was fitted to the equation [Log D7.4=0.8342(RET)+1.7393] with an R^2 of 0.97.
The RET from three injections was averaged with the log D7.4 value extrapolated from the equation found in FIG. 1.

A further data set has as its target T3, hP2X7R (Homo sapiens, UniProt Q99572).
T3 sequence (Q99572 1-595): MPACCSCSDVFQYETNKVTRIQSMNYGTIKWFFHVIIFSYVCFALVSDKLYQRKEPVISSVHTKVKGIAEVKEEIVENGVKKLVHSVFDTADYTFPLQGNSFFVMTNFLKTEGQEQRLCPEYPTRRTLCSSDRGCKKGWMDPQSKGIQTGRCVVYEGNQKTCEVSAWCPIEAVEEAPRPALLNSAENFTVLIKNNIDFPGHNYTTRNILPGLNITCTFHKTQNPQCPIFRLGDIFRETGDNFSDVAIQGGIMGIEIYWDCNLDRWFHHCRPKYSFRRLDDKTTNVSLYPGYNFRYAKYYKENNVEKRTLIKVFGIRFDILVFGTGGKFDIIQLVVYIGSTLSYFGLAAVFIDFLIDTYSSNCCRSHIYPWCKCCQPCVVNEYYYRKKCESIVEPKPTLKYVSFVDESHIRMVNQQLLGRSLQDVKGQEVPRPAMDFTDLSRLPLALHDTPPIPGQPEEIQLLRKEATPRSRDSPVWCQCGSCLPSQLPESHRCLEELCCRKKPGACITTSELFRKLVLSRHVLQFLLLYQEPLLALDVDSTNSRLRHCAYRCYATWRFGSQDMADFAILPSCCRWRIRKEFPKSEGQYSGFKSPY
The data set can be described thus: Calcium influx assay in HEK-hP2X7 cells. Format: cell-based. The settings on record: HEK cells expressing hP2X7R, BzATP 100 μM; mean ± standard deviation, n >3. Here is the method: HEK293T cells transfected with cDNA for the human (HEK-hP2X7) or mouse P2X7 (HEK-mP2X7) receptor (a kind gift from Dr […] Stokes and Prof. Jim Wiley) were cultured in DMEM/F12 with 10% FBS and 500 μg/mL G418 (all from Invitrogen). […] HEK-hP2X7 or HEK-mP2X7 cells were harvested using trypsin (0.05%) with EDTA (0.03%). Cells were loaded with Fluo-4 AM (1 μM) in HBSS buffer at 37° C. for 30 min, inverting every 5 mins. […] Fluorescence was then monitored every 5 s for 5 min total monitoring. […] Data were normalized to the peak response seen with BzATP alone and the basal response seen due to injection of vehicle (see FIG. 3).

T2 sequence (P10635 whole entry): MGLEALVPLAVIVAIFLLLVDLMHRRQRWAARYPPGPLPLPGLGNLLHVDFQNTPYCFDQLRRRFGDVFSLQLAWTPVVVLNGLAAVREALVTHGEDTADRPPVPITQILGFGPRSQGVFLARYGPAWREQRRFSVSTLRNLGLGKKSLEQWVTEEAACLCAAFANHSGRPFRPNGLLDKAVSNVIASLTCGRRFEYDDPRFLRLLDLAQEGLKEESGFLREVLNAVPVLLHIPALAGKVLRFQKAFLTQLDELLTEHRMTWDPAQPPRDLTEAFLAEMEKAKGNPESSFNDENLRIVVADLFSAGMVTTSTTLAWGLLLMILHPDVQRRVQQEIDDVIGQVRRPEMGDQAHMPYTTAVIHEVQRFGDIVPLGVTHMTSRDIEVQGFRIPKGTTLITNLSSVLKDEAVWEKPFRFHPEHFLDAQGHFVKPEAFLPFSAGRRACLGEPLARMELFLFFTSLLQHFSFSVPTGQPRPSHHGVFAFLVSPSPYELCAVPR

With `COc1ccc(Cl)c(C(=O)NCC23CC4(F)CC(F)(CC(F)(C4)C2)C3)c1` [Compound 1, 2-Chloro-N-((3,5,7-trifluoroadamantan-1-yl)methyl)-5-methoxybenzamide], the inhibition at 60 min, 1 μM on CYP1A2 was found to be 5.48%. For the same molecule, the fraction unbound at 4 h, 1 μM in data set [1] was 0.0549. The inhibition at 60 min, 1 μM against CYP2D6 is -29.1%. Besides, in data set [2], the “lipophilicity compared with compound 31” value is on record as “less lipophilic than compound 31”, the logD7.4 was 2.83 and the chromatographic logD came to 2.83.

Regarding `COc1ccc(Cl)c(C(=O)NCC23CC4CC(F)(CC(F)(C4)C2)C3)c1` [Compound 2, 2-Chloro-N-((3,5-difluoroadamantan-1-yl)methyl)-5-methoxybenzamide], the inhibition at 60 min, 1 μM on CYP1A2 turned out to be 7.04%. Further, the fraction unbound at 4 h, 1 μM in data set [1] is 0.085. Further, the inhibition at 60 min, 1 μM against CYP2D6 was -25.3%. Further, in data set [2], the “lipophilicity compared with compound 31” value was “less lipophilic than compound 31”, the logD7.4 is 2.85 and the chromatographic logD worked out at 2.85. Further, the IC50 at hP2X7R came to 10 ± 4 nM.

Take `COc1ccc(Cl)c(C(=O)NCC23CC4CC(CC(F)(C4)C2)C3)c1` [Compound 3, 2-Chloro-N-((3-fluoroadamantan-1-yl)methyl)-5-methoxybenzamide]: the inhibition at 60 min, 1 μM against CYP1A2 was found to be 7.86%. The fraction unbound at 4 h, 1 μM in data set [1] was 0.0309. For the same molecule, the inhibition at 60 min, 1 μM on CYP2D6 is -28.9%. In data set [2], the “lipophilicity compared with compound 31” value was “less lipophilic than compound 31”, the logD7.4 is reported as 3.27 and the chromatographic logD came to 3.27. Further, the IC50 at hP2X7R stood at 17.4 ± 2.9 nM.

As to `COc1ccc(Cl)c(C(=O)NCC23CC4CC(CC(C4)C2)C3)c1` [Compound 31, reference compound], the inhibition at 60 min, 1 μM against CYP1A2 came to 25.7%. Also, the fraction unbound at 4 h, 1 μM in data set [1] is 0.0027. The inhibition at 60 min, 1 μM on CYP2D6 was -47.3%. In data set [2], the logD7.4 is 4.23 and the chromatographic logD came to 4.23. For the same molecule, on hP2X7R, the IC50 is 26 nM and 25.7 nM.
